Measurements reported in patent publication US11219215B2, “Herbicidal composition comprising cinmethylin and specific inhibitors of protoporphyrinogen oxidase” (BASF Agro B.V., priority 2015, dated 2022).
Where “and” joins values, the source holds several entries; their conditions need not be identical. Identical values can stand only once.

Assays:
Assay type in all cases: in vivo
[1] = system: Abutilon theophrasti; experiment: Greenhouse preemergence herbicidal activity, ABUTH; settings: 20 DAT
Description: (§1) The containers were irrigated gently to promote germination and growth and subsequently covered with transparent plastic hoods until the plants had rooted.
(§2) The plants have been cultivated due to their individual requirements at 10-25° C. and 20-35° C.
(§3) The plants were irrigated due to their necessity.
(§4) The racemic mixture (±)-2-exo-(2-Methylbenzyloxy)-1-methyl-4-isopropyl-7-oxabicyclo[2.2.1]heptane was used as herbicide A and formulated as emulsifiable concentrates with an active ingredient concentration of 50g/I, 100 g/I or 750 g/I respectively.
(§5) Flumioxazin (herbicide B.1) was used as a wettable powder (WP) formulation having an active ingredient concentration of 50%.
(§6) Sulfentrazone (herbicide B.2) was used as a suspension concentrate (SC) having an active ingredient concentration of 480 g/l.
(§7) In the following experiments, the herbicidal activity for the individual herbicidal compositions (solo and mixture applications) was assessed 20 days after treatment (DAT).
(§8) The evaluation for the damage on undesired weeds caused by the chemical compositions was carried out using a scale from 0 to 100%, compared to the untreated control plants. Here, 0 means no damage and 100 means complete destruction of the plants.
(§9) E=X+Y−(X·Y/100) where X=effect in percent using herbicide A at an application rate a; • Y=effect in percent using herbicide B at application rate b; • E=expected effect (in %) of herbicide A+herbicide B at application rates a+b.
(§10) The value E corresponds to the effect (plant damage or injury) which is to be expected if the activity of the individual compounds is additive. If the observed effect is higher than the value E calculated according to the Colby equation, a synergistic effect is present.

[2] = system: Chenopodium album; experiment: Greenhouse preemergence herbicidal activity, CHEAL; settings: 20 DAT
Description: as §1, §2, §3, §4, §5, §6
(§11) In the following experiments, the herbicidal activity for the individual herbicidal compositions (solo and mixture applications) was assessed 20 days after treatment (DAT). […]
as §10

[3] = system: Setaria viridis; experiment: Greenhouse preemergence herbicidal activity, SETVI; settings: 20 DAT
Description: as §1, §2, §3, §4, §5, §6, §7, §8, §9, §10

[4] = system: Geranium dissectum; experiment: Greenhouse postemergence herbicidal activity, GERDI; settings: herbicide A solo 62.5 g ai/ha, 20 DAT
Description: (§12) For the post emergence treatment, the plants were first grown to the 2 leaf station (GS 12). Here, the herbicidal compositions were suspended or emulsified in water as distribution medium and sprayed using finely distributing nozzles.
as §2, §3, §4, §5, §6, §11, §10

[5] = system: Stellaria media; experiment: Greenhouse preemergence herbicidal activity, STEME; settings: 20 DAT
Description: as §1, §2, §3, §4, §5, §6, §7, §8, §9, §10

[6] = system: Lolium multiflorum; experiment: Greenhouse preemergence herbicidal activity, LOLMU; settings: 20 DAT
Description: as §1, §2, §3, §4, §5, §6, §7, §8, §9, §10

[7] = system: Anthemis arvensis; experiment: Greenhouse preemergence herbicidal activity, ANTAR; settings: 20 DAT
Description: as §1, §2, §3, §4, §5, §6, §7, §8, §9, §10

[8] = system: Setaria viridis; experiment: Greenhouse postemergence herbicidal activity, SETVI; settings: 20 DAT
Description: as §12, §2, §3, §4, §5, §6, §11, §10

[9] = system: Alopecurus myosuroides; experiment: Greenhouse preemergence herbicidal activity, ALOMY; settings: 20 DAT
Description: as §1, §2, §3, §4, §5, §6, §7, §8, §9, §10

[10] = system: Sorghum halepense; experiment: Greenhouse preemergence herbicidal activity, SORHA; settings: 20 DAT
Description: as §1, §2, §3, §4, §5, §6, §7, §8, §9, §10

[11] = system: Digitaria sanguinalis; experiment: Greenhouse postemergence herbicidal activity, DIGSA; settings: 20 DAT
Description: as §12, §2, §3, §4, §5, §6, §7, §8, §9, §10

[12] = system: Galium aparine; experiment: Greenhouse preemergence herbicidal activity, GALAP; settings: 20 DAT
Description: as §1, §2, §3, §4, §5, §6, §7, §8, §9, §10

[13] = system: Geranium dissectum; experiment: Greenhouse preemergence herbicidal activity, GERDI; settings: 20 DAT
Description: as §1, §2, §3, §4, §5, §6, §7, §8, §9, §10

[14] = system: Polygonum convolvulus; experiment: Greenhouse preemergence herbicidal activity, POLCO; settings: 20 DAT
Description: as §1, §2, §3, §4, §5, §6, §7, §8, §9, §10

[15] = system: Avena fatua; experiment: Greenhouse preemergence herbicidal activity, AVEFA; settings: 20 DAT
Description: as §1, §2, §3, §4, §5, §6, §11, §10

[16] = sulfentrazone solo 12.5 g ai/ha

Cc1ccccc1CO[C@@H]1C[C@]2(C(C)C)CC[C@@]1(C)O2 (racemic) [herbicide A, (±)-2-exo-(2-Methylbenzyloxy)-1-methyl-4-isopropyl-7-oxabicyclo[2.2.1]heptane]
herbicidal activity ([1]; herbicide A solo 50 g ai/ha): 0%
herbicidal activity ([1]; herbicide A solo 100 g ai/ha): 0%
herbicidal activity ([2]; herbicide A solo 62.5 g ai/ha): 45%
herbicidal activity ([2]; herbicide A solo 125 g ai/ha): 60%
herbicidal activity ([3]; herbicide A solo 25 g ai/ha): 75%
herbicidal activity ([3]; herbicide A solo 31.25 g ai/ha): 95%
herbicidal activity [4]: 75%
herbicidal activity ([5]; herbicide A solo 25 g ai/ha): 20%
herbicidal activity ([5]; herbicide A solo 50 g ai/ha): 20%
herbicidal activity ([5]; herbicide A solo 62.5 g ai/ha): 45%
herbicidal activity ([6]; herbicide A solo 25 g ai/ha): 50%
herbicidal activity ([6]; herbicide A solo 31.25 g ai/ha): 75%
herbicidal activity ([6]; herbicide A solo 62.5 g ai/ha): 85% and 90%
herbicidal activity ([6]; herbicide A solo 125 g ai/ha): 90%
herbicidal activity ([6]; herbicide A solo 500 g ai/ha): 95%
herbicidal activity ([7]; herbicide A solo 25 g ai/ha): 0%
herbicidal activity ([7]; herbicide A solo 31.25 g ai/ha): 0%
herbicidal activity ([7]; herbicide A solo 62.5 g ai/ha): 0%
herbicidal activity ([7]; herbicide A solo 125 g ai/ha): 20%
herbicidal activity ([8]; herbicide A solo 62.5 g ai/ha): 40%
herbicidal activity ([8]; herbicide A solo 125 g ai/ha): 60%
herbicidal activity ([9]; herbicide A solo 31.25 g ai/ha): 95%
herbicidal activity ([9]; herbicide A solo 62.5 g ai/ha): 98%
herbicidal activity ([10]; herbicide A solo 25 g ai/ha): 90%
herbicidal activity ([10]; herbicide A solo 62.5 g ai/ha): 90%
herbicidal activity ([10]; herbicide A solo 125 g ai/ha): 95%
herbicidal activity ([10]; herbicide A solo 250 g ai/ha): 98%
herbicidal activity ([11]; herbicide A solo 62.5 g ai/ha): 60%
herbicidal activity ([11]; herbicide A solo 125 g ai/ha): 65%
herbicidal activity ([11]; herbicide A solo 250 g ai/ha): 80%
herbicidal activity ([12]; herbicide A solo 31.25 g ai/ha): 30%
herbicidal activity ([12]; herbicide A solo 62.5 g ai/ha): 0%
herbicidal activity ([12]; herbicide A solo 125 g ai/ha): 0%
herbicidal activity ([12]; herbicide A solo 200 g ai/ha): 30%
herbicidal activity ([12]; herbicide A solo 500 g ai/ha): 70%
herbicidal activity ([13]; herbicide A solo 50 g ai/ha): 50%
herbicidal activity ([13]; herbicide A solo 62.5 g ai/ha): 70% and 80%
herbicidal activity ([13]; herbicide A solo 100 g ai/ha): 50%
herbicidal activity ([13]; herbicide A solo 125 g ai/ha): 70%
herbicidal activity ([13]; herbicide A solo 250 g ai/ha): 70%
herbicidal activity ([14]; herbicide A solo 25 g ai/ha): 0%
herbicidal activity ([14]; herbicide A solo 50 g ai/ha): 0%
herbicidal activity ([14]; herbicide A solo 62.5 g ai/ha): 0%
herbicidal activity ([14]; herbicide A solo 250 g ai/ha): 45%
herbicidal activity ([15]; herbicide A solo 62.5 g ai/ha): 40%
herbicidal activity ([15]; herbicide A solo 250 g ai/ha): 65%

Cc1nn(-c2cc(NS(C)(=O)=O)c(Cl)cc2Cl)c(=O)n1C(F)F [sulfentrazone, 2′,4′-dichloro-5′-(4-difluoromethyl-4,5-dihydro-3-methyl-5-oxo-1H-1,2,4-triazol-1-yl)methanesulfonanilide]
herbicidal activity ([1]; sulfentrazone solo 25 g ai/ha): 65%
herbicidal activity ([1]; sulfentrazone solo 50 g ai/ha): 65%
herbicidal activity [3, 16]: 0%
herbicidal activity ([3]; sulfentrazone solo 25 g ai/ha): 65%
herbicidal activity [5, 16]: 0%
herbicidal activity ([5]; sulfentrazone solo 25 g ai/ha): 20%
herbicidal activity ([5]; sulfentrazone solo 50 g ai/ha): 40%
herbicidal activity [6, 16]: 0%
herbicidal activity ([6]; sulfentrazone solo 100 g ai/ha): 80%
herbicidal activity [7, 16]: 40%
herbicidal activity ([7]; sulfentrazone solo 25 g ai/ha): 85%
herbicidal activity ([9]; sulfentrazone solo 25 g ai/ha): 35%
herbicidal activity [10, 16]: 0%
herbicidal activity ([10]; sulfentrazone solo 100 g ai/ha): 80%
herbicidal activity ([12]; sulfentrazone solo 100 g ai/ha): 98%
herbicidal activity ([13]; sulfentrazone solo 25 g ai/ha): 50%
herbicidal activity [14, 16]: 20%
herbicidal activity ([14]; sulfentrazone solo 25 g ai/ha): 90%
